Legend:
[1] = test system: CL145A (ATCC 55799); test: Antibiotic resistance profile (antibiotic discs on Mueller-Hinton Agar); settings: for Suppresses growth of CL145A: 25° C., 72 hours; for CL145A resistant or sensitive to the antibiotic: antibiotic disc, 72 hours incubation
Experimental: One glycerol stock vial of CL145A was equally distributed onto Mueller-Hinton Agar plates (100 μl per plate) and spread on the plate using a sterile cell spreader. Antibiotic discs were then placed onto the plates along with a blank sterile disc. Plates were incubated at 25° C. in the dark for 72 hours.

[2] = test system: mussels; test: Mussel bioassay in scintillation vials; format: in vivo
Experimental: Mussel bioassays were performed in twenty milliliter scintillation vials. Ten small mussels (approximately 1 cm long) were incubated in the mussel water (10 mL) for 24 hr first, then the mussel water (10 mL) was changed freshly before test cell lysis was added. Cell lysis or proteins (maximal 500 μL) was added into each vial. After 24 hr, the mussel water with cell lysis or proteins was changed with clean mussel water. Then, mussel water was changed every 24 hr with clean mussel water. Dead mussels were taken away every day and mussel mortality was calculated by number of dead mussel divided by the number of total mussels.

Row | Compound | Suppresses growth of CL145A ([1]; 10 μg disc) | CL145A resistant or sensitive to the antibiotic [1] | also measured
1 | Penicillin | No | resistant | 
2 | fumarate hydratase Class II (or fumarase) [Protein B] |  |  | Mussel mortality at 7th day ([2]; 4 ppm, 7th day): 60%; Activity in mussel bioassay of proteins and fractions dosed after gel analysis ([2]; in vivo): active
3 | CC1(C)S[C@@H]2[C@H](NC(=O)[C@H](N)c3ccccc3)C(=O)N2[C@H]1C(=O)O [Ampicillin] | No | resistant | 
4 | CC[C@H]1OC(=O)[C@H](C)[C@@H](O[C@H]2C[C@@](C)(OC)[C@@H](O)[C@H](C)O2)[C@H](C)[C@@H](O[C@@H]2O[C@H](C)C[C@H](N(C)C)[C@H]2O)[C@](C)(O)C[C@@H](C)C(=O)[C@H](C)[C@@H](O)[C@]1(C)O [Erythromycin] |  | resistant | Suppresses growth of CL145A ([1]; 15 μg disc): No
5 | O=C(N[C@H](CO)[C@H](O)c1ccc([N+](=O)[O-])cc1)C(Cl)Cl [Chloramphenicol] |  | resistant | Suppresses growth of CL145A ([1]; 30 μg disc): No
6 | [H]/N=C(/N)N[C@H]1[C@H](O)[C@@H](O)[C@H](O[C@@H]2O[C@@H](C)[C@](O)(C=O)[C@H]2O[C@@H]2O[C@@H](CO)[C@H](O)[C@@H](O)[C@@H]2NC)[C@@H](N/C(N)=N\[H])[C@@H]1O [Streptomycin] | No | resistant | 
7 | CCN1CCN(C(=O)N[C@@H](C(=O)N[C@@H]2C(=O)N3[C@@H]2SC(C)(C)[C@@H]3C(=O)O)c2ccccc2)C(=O)C1=O [Piperacillin] |  | sensitive | Suppresses growth of CL145A ([1]; 100 μg disc): Yes
8 | CO/N=C(\C(=O)N[C@@H]1C(=O)N2C(C(=O)O)=C(COC(N)=O)CS[C@H]12)c1ccco1 [Cefuroxime] |  | resistant | Suppresses growth of CL145A ([1]; 30 μg disc): No
9 | Sulphamethoxazole-Trimethoprim |  | sensitive | Suppresses growth of CL145A ([1]; 23.75/25 μg disc): Yes
10 | Gentamicin | Yes | sensitive | 

From patent publication US8728754B1, “Use of proteins isolated from Pseudomonas to control molluscs” (priority 2013, dated 2014)
